Source: US20190282558A1, “Methods of Treating Zika Virus Infection” (Emergent Virology LLC, priority 2016, published 2019)
pIC50: −log10 of the molar value. Where two headings read alike, the source gives them in different places.

Legend:
[1] = In vitro cell cytotoxicity (CellTiter-Glo) in Vero cells; format: cell-based; conditions: African green monkey, 3-5 days, max concentration 500 or 1000 μM, * = average of two values
[2] = tested on: Zika virus (isolate FSS13025 of the Asian genotype); assay: Efficacy against lethal Zika virus infection in AG129 mice; format: in vivo; conditions: 1E2 FFU Zika virus, 750 mg/kg once daily for three days by oral gavage, starting 16 hours after exposure, vs vehicle (FIG. 1)
Protocol: AG129 mice, aged 5-7 weeks, of both sexes were divided into groups of eight mice each. Mice were infected with 1E2 FFU of Zika virus (isolate FSS13025 of the Asian genotype). The mice were treated 16 hours after exposure. One group was administered 750 mg/kg of UV-4 once daily for three days. UV-4 was formulated in water and all doses were administered via oral gavage in a volume of 100 μL. A control group was administered vehicle (water) only. Predefined study endpoints were mortality, euthanasia due to severe morbidity, or termination after 10 days total. Weights were measured and health scores were determined daily.

[3] = tested on: Zika virus, FSS 13025 strain (ZIKV, Cambodia 2010); assay: Yield reduction assay followed by plaque assay in Vero cells, ZIKV Cambodia 2010; format: cell-based; conditions: for pIC50: Zika virus, 96 h, read-out: ZIKV, Cambodian 2010 IC50; for IC50 (summary in words): summary of Table 3
Protocol: (§1) The iminosugar compounds set forth in Table 4, below, were evaluated for antiviral activity against Zika virus, FSS 13025 strain (ZIKV, Cambodia 2010) and PR ABC strain (ZIKV, PR2015) in an yield reduction assay followed by a plaque assay.
In the yield reduction assay, Vero cells were seeded in 24-well plates and incubated overnight. The next day, serial dilutions of a given compound were prepared at 300 μM, 100 μM, 30 μM, 10 μM, and 3.0 μM. Growth medium was removed from the cells and the serial dilutions of the given compound were added in duplicate for one hour. Zika virus, FSS 13025 strain (ZIKV, Cambodia 2010) was added at a multiplicity of infection (MOI) of 0.01 for one hour. Growth medium was added to 1 mL and the cells were incubated for 4 days. Thereafter, cell supernatants were harvested, cleared of cell debris by centrifugation, and stored at −80° C. until further analysis for viral content in a plaque assay.
Plaque assays were performed by seeding Vero cells in 24-well plates and allowing the cells to adhere overnight. The next day each of the harvested supernatants from the yield-reduction assay were serially diluted 10-fold, growth medium was removed from the cells, and the adhered cells were infected with the dilutions of the supernatants for 1 h. Methylcellulose was added and the cells were incubated for 3 days. Plaques were visualized by staining the cell monolayer with crystal violet. Relative inhibition was calculated using IDBS XLFIT analysis program.
(§2) The duplicate titers for virus-only (vehicle control) were averaged and used as 0% inhibition. Efficacy data for the compounds were reported as the mean of the duplicates, including the standard deviation (SD) and coefficient of variation (% CV). FIGS. 2A, 2B, 3A, 3B, 4A, 4B, 5A, 5B, 6A, 6B, 7A, 7B, 8A, 8B, 9A, 9B, 10A, 10B, 11A, 11B, 12A, 12B, 13A, 13B, 14A, 14B, and 15 show the in vitro inhibitory effect of the iminosugar compounds against Zika virus, FSS 13025 strain, as set forth in Table 3 below.

[4] = tested on: Zika virus, PR ABC strain (ZIKV, PR2015); assay: Yield reduction assay followed by plaque assay in Vero cells, ZIKV PR2015; format: cell-based; conditions: 120 h, read-out: ZIKV, PR2015 IC50
Protocol: as §1
In the yield reduction assay, Vero cells were seeded in 24-well plates and incubated overnight. The next day, serial dilutions of a given compound were prepared at 200 μM, 100 μM, 20 μM, 4 μM, 0.8 μM, 0.16 μM, 0.03 μM, and 0.01 μM. Growth medium was removed from the cells and the serial dilutions of the given compound were added in duplicate for one hour. Zika virus, PR ABC strain (ZIKV, PR2015) was added at a multiplicity of infection (MOI) of 0.01 for one hour. Growth medium was added to 1 mL and the cells were incubated for 5 days. Thereafter, cell supernatants were harvested, cleared of cell debris by centrifugation, and stored at −80° C. until further analysis for viral content in a plaque assay.
Plaque assays were performed by seeding Vero cells in 24-well plates and allowing the cells to adhere overnight. The next day each of the harvested supernatants from the yield-reduction assay were serially diluted 10-fold, growth medium was removed from the cells, and the adhered cells were infected with the dilutions of the supernatants for 1 h. The cells were incubated with 0.8% carboxymethyl cellulose (CMC) for 3 days. At the end of the incubation, CMC overlay was removed, and the cells were permeabilized with an 80%/20% (V/V) mixture of ethanol and methanol for 10 min at −20° C. Plaques were visualized by performing an immunostaining assay with monoclonal 4G2 (ATCC) which was detected by HRP-conjugated goat anti-mouse antibody and visualized using HRP-conjugated goat anti-mouse polyclonal antibodies. Relative inhibition was calculated using IDBS XLFIT analysis program.
as §2

[5] = Vero cells, MOI 0.01, 4 days, plaque assay of supernatants, * = average of multiple data points
[6] = Vero cells, MOI 0.01, 5 days, plaque assay with immunostaining, * = average of multiple data points

COCCCCCCCCCN1C[C@H](O)[C@@H](O)[C@H](O)[C@H]1CO [UV-4, (2R,3R,4R,5S)-2-(hydroxymethyl)-1-(9-methoxynonyl)piperidine-3,4,5-triol]
CC50 [1]: > 1000 µM
survival [2]: statistically significant survival benefit
pIC50 ([3]; Vero): < 4.00
pIC50 ([4]; Vero): < 4.00

[N-]=[N+]=Nc1ccc(NCCCCCCN2C[C@H](O)[C@@H](O)[C@H](O)[C@H]2CO)c([N+](=O)[O-])c1 [UV-5, (2R,3R,4R,5S)-1-(6-((4-azido-2-nitrophenyl)amino)hexyl)-2-(hydroxymethyl)piperidine-3,4,5-triol]
CC50 [1]: 77.3 µM
pIC50 ([3]; Vero): 5.35
IC50 (summary in words) [3]: low micromolar activity
pIC50 ([4]; Vero): 5.28

[N-]=[N+]=Nc1ccc([N+](=O)[O-])c(NCCCCCCN2C[C@H](O)[C@@H](O)[C@H](O)[C@H]2CO)c1 [Compound 12, (2R,3R,4R,5S)-1-(6-((5-azido-2-nitrophenyl)amino)hexyl)-2-(hydroxymethyl)piperidine-3,4,5-triol]
CC50 [1]: 140 µM
pIC50 [3, 5]: 4.41
IC50 (summary in words) [3]: low micromolar activity
pIC50 [4, 6]: 4.02

CN1CCN(Cc2ccc(NCCCCCCN3C[C@H](O)[C@@H](O)[C@H](O)[C@H]3CO)c([N+](=O)[O-])c2)CC1 [Compound 15, (2R,3R,4R,5S)-2-(hydroxymethyl)-1-(6-((4-((4-methylpiperazin-1-yl)methyl)-2-nitrophenyl)amino)hexyl)piperidine-3,4,5-triol]
CC50 [1]: > 1000 µM
pIC50 [3, 5]: 4.92
IC50 (summary in words) [3]: low micromolar activity
pIC50 [4, 6]: 3.82

COC(C)(C)CCCCCCCCN1C[C@H](O)[C@@H](O)[C@H](O)[C@H]1CO [Compound 2, (2R,3R,4R,5S)-2-(hydroxymethyl)-1-(9-methoxy-9-methyldecyl)piperidine-3,4,5-triol]
CC50 [1]: > 500 µM
pIC50 [3, 5]: 5.00
IC50 (summary in words) [3]: low micromolar activity
pIC50 [4, 6]: 4.90

OC[C@@H]1[C@@H](O)[C@H](O)[C@@H](O)CN1CCCCCCCCC1CCCO1 (stereo partly drawn) [Compound 1, (2R,3R,4R,5S)-2-(hydroxymethyl)-1-(8-(tetrahydrofuran-2-yl)octyl)piperidine-3,4,5-triol]
CC50 [1]: > 500 µM
pIC50 [3, 5]: 4.34
pIC50 [4, 6]: 4.16

O=[N+]([O-])c1cc(N2CCOCC2)ccc1NCCCCCCN1C[C@H](O)[C@@H](O)[C@H](O)[C@H]1CO [Compound 8, (2R,3R,4R,5S)-2-(hydroxymethyl)-1-(6-((4-morpholino-2-nitrophenyl)amino)hexyl)piperidine-3,4,5-triol]
CC50 [1]: > 1000 µM
pIC50 [3, 5]: < 4.00
pIC50 [4, 6]: < 4.00

CN(C)Cc1ccc(NCCCCCCN2C[C@H](O)[C@@H](O)[C@H](O)[C@H]2CO)c([N+](=O)[O-])c1 [Compound 11, (2R,3R,4R,5S)-1-(6-((4-((dimethylamino)methyl)-2-nitrophenyl)amino)hexyl)-2-(hydroxymethyl)piperidine-3,4,5-triol]
CC50 [1]: > 1000 µM
pIC50 [3, 5]: < 4.00
pIC50 [4, 6]: < 4.00
